This note sets out measurements from patent publication US5525599A, “7-substituted-amino-3-substituted-3-cephem-4-carboxylic acids” (Eli Lilly and Company, priority 1993, dated 1996).

The structures appear in SMILES notation. In brackets after ≈: the same amount, converted by molar mass. Like-named read-outs stand apart in the source and are kept apart here. Where only a bound is given, the exact number is not on record here.

In experiment [1] the test system is 33 strains of methicillin-resistant staphylococci. Briefly: Geometric mean MICs against 33 strains of methicillin-resistant staphylococci. Type of experiment: cell-based. The protocol: (§1) Test compounds were diluted to an appropriate range of concentrations in 0.1M phosphate buffer (pH 7), incorporated into Mueller-Hinton agar (difco) supplemented with 1% Bacto-Supplement C (Difco) at 50° C. and allowed to solidify in petri dishes. Fresh overnight cultures of test bacteria were diluted to approximately 1×10^4 cells/mL aand applied in […] to the surface of the agar plates. The inoculated plates were incubated overnight at 35° C. in ambient air. MIC endpoints were recorded as the lowest antibiotic concentrations that inhibited the development of visible bacterial growth on the plates.
It is known that resistance to methicillin in staphylococci is often of the heterogeneous type and therefore not easily detected. […] (Goldstein, F. W.; Acar, J. J. Antimicrob. Chemother. […], 27, 549). […] J.; Drake T. A.; Rusnak, M. G.; Sande, M. A. J. Infect. Dis. 1984, 149, 894).

A further experiment deals with other Gram(-) bacteria. Nature of the experiment: In vitro activity (MIC), agar dilution method. Type of experiment: cell-based. A general note: In agar dilution, organisms are placed on agar that contains the substance at set levels.
The nature of experiment [2]: MICs against 4 strains of methicillin-resistant staphylococci. The class given is cell-based, Staphylococcus aureus and Staphylococcus epidermidis. The following applies: Staphylococcus aureus, read-out: minimal inhibitory concentrations (MICs). The protocol:
(§2) Cephalosporins 9a-o were assayed against a broad array of Gram-positive and Gram-negative bacteria in Mueller-Hinton agar by the 2-fold serial dilution method, (Kirst, H. A.; J. Antibiot. 1982, 35, 1675).
as §1

In a further experiment the test system is Strept. pyogenes (C203). Nature of the experiment: In vitro activity (MIC), agar dilution method. Type of experiment: cell-based. The following applies: Streptococcus pyogenes; Strept. pyogenes (C203), agar dilution; read-out: MIC. As for the experimental part:
as §2, §1

The subject of the next experiment is K. pneumonia (X68). Briefly: In vitro activity (MIC), agar dilution method. Type of experiment: cell-based. Conditions: Klebsiella pneumoniae. The protocol: as §2, §1
In another experiment the test system is Staph. epiderm. (222). Briefly: In vitro activity (MIC), agar dilution method. Type of experiment: cell-based. Conditions: Staphylococcus epidermidis; Staph. epiderm. (222), methicillin-resistant strain, agar dilution; read-out: MIC. The protocol: as §2, §1
The next experiment has as its system Enter. faecalis (2041). Nature of the experiment: In vitro activity (MIC), agar dilution method. The class given is cell-based. Conditions: Enterococcus faecalis; Enter. faecalis (2041), agar dilution; read-out: MIC. The protocol:
as §2, §1

The subject of a further experiment is E. coli (N10). Nature of the experiment: In vitro activity (MIC), agar dilution method. Type of experiment: cell-based. The following applies: Escherichia coli. The protocol: as §2, §1
For a further experiment, the system named is Staph. aureus (X400). Briefly: In vitro activity (MIC), agar dilution method. Conditions: Staphylococcus aureus; Staph. aureus (X400), methicillin-resistant strain, agar dilution; read-out: MIC. The class given is cell-based. The protocol:
as §2, §1

A further experiment concerns Staph. aureus (S13E). Briefly: In vitro activity (MIC), agar dilution method. The class given is cell-based. Conditions: Staphylococcus aureus. The protocol:
as §2, §1

A further experiment deals with Enter. faecium (X66). Nature of the experiment: In vitro activity (MIC), agar dilution method. The class given is cell-based. Conditions: Enterococcus faecium; Enter. faecium (X66), agar dilution; read-out: MIC. As for the experimental part:
as §2, §1

The subject of another experiment is E. coli (EC14). Nature of the experiment: In vitro activity (MIC), agar dilution method. Conditions: Escherichia coli. The class given is cell-based. The protocol: as §2, §1
The test system of the next experiment is K. pneumonia (X26). Nature of the experiment: In vitro activity (MIC), agar dilution method. The class given is cell-based. Conditions: Klebsiella pneumoniae; K. pneumonia (X26), agar dilution; read-out: MIC. As for the experimental part: as §2, §1
The next experiment relates to Staph. aureus (X1.1). Briefly: In vitro activity (MIC), agar dilution method. The class given is cell-based. Conditions: Staphylococcus aureus; Staph. aureus (X1.1), agar dilution; read-out: MIC. As for the experimental part:
as §2, §1

A further experiment relates to Staph. epiderm. (270). Briefly: In vitro activity (MIC), agar dilution method. Conditions: Staphylococcus epidermidis, methicillin-resistant strain. The class given is cell-based. As for the experimental part: as §2, §1
A further experiment has as its system K. pneumonia (KAE). Nature of the experiment: In vitro activity (MIC), agar dilution method. Conditions: Klebsiella pneumoniae. Type of experiment: cell-based. The protocol:
as §2, §1

Another experiment deals with H. influenzae (C.L.). Nature of the experiment: In vitro activity (MIC), agar dilution method. Conditions: Haemophilus influenzae; H. influenzae (C.L.), agar dilution; read-out: MIC. Type of experiment: cell-based. As for the experimental part:
as §2, §1

For a further experiment, the system named is Staph. aureus (V41). Briefly: In vitro activity (MIC), agar dilution method. The class given is cell-based. The following applies: Staphylococcus aureus; Staph. aureus (V41), agar dilution; read-out: MIC. The protocol:
as §2, §1

The subject of a further experiment is E. coli (TEM). Briefly: In vitro activity (MIC), agar dilution method. Type of experiment: cell-based. The following applies: Escherichia coli. The protocol:
as §2, §1

The next experiment has as its system H. influenzae (76). Briefly: In vitro activity (MIC), agar dilution method. The class given is cell-based. Conditions: Haemophilus influenzae; H. influenzae (76), agar dilution; read-out: MIC. The protocol: as §2, §1

For the compound `Cc1onc(-c2ccccc2)c1C(=O)N[C@@H]1C(=O)N2[C@@H]1SC(C)(C)[C@@H]2C(=O)O` [Oxacillin, reference compound], the MIC in experiment [1] (read-out: Geometric mean MIC, MHA + 4% NaCl, 33 strains, 35° C.) turned out to be 97 µg/mL; in experiment [1] (read-out: Geometric mean MIC, MHA, 33 strains) it was 49 µg/mL (≈ 122 µM).

As to `COc1ccccc1-c1nc(CC(=O)N[C@@H]2C(=O)N3C(C(=O)O)=C(COC(C)=O)CS[C@H]23)cs1` [9o, [6R-[6A,7B(R*)]]-3-[(Acetyloxy)methyl]-7-[[[2-(2-methoxyphenyl)-4-thiazolyl]acetyl]amino]-8-oxo-5-thia-1-azabicyclo[4.2.0]oct-2-ene-2-carboxylic Acid], the MIC against other Gram(-) bacteria is over 64 µg/mL; in experiment [2], at most 16 µg/mL; in the experiment on Strept. pyogenes (C203), 0.015 µg/mL (≈ 0.0298 µM); against K. pneumonia (X68), 128 µg/mL (≈ 254 µM); in the experiment on Staph. epiderm. (222), 0.125 µg/mL (≈ 0.248 µM); with Enter. faecalis (2041), 8 µg/mL (≈ 15.9 µM). The MIC against E. coli (N10) worked out at 128 µg/mL (≈ 254 µM); in the experiment with Staph. aureus (X400), 16 µg/mL (≈ 31.8 µM); against Staph. aureus (S13E), 8 µg/mL (≈ 15.9 µM); in the experiment with Enter. faecium (X66), 16 µg/mL (≈ 31.8 µM); against E. coli (EC14) it was 128 µg/mL (≈ 254 µM); with K. pneumonia (X26), 2 µg/mL (≈ 3.97 µM). The MIC in the experiment on Staph. aureus (X1.1) was determined as 0.06 µg/mL (≈ 0.119 µM); in the experiment with Staph. epiderm. (270), 0.5 µg/mL (≈ 0.993 µM); against K. pneumonia (KAE) it was 128 µg/mL (≈ 254 µM); with H. influenzae (C.L.), 64 µg/mL (≈ 127 µM); in the experiment with Staph. aureus (V41) it was 0.5 µg/mL (≈ 0.993 µM); against E. coli (TEM) it was 128 µg/mL (≈ 254 µM). Besides, the MIC with H. influenzae (76) amounted to 4 µg/mL (≈ 7.94 µM).

On to `CC(=O)OCC1=C(C(=O)O)N2C(=O)[C@@H](NC(=O)Cc3csc(-c4c(O)cccc4O)n3)[C@H]2SC1` [9e, [6R-[6A,7B(R*)]]-3-[(Acetyloxy)methyl]-7-[[[2-(2,6-dihydroxyphenyl)-4-thiazolyl]acetyl]amino]-8-oxo-5-thia-1-azabicyclo[4.2.0]oct-2-ene-2-carboxylic Acid], for which the MIC in the experiment with other Gram(-) bacteria was over 64 µg/mL; in experiment [2] it was at most 16 µg/mL; with Strept. pyogenes (C203) it was 0.03 µg/mL (≈ 0.0593 µM); with K. pneumonia (X68) (K. pneumonia (X68), agar dilution, read-out: MIC), 16 µg/mL (≈ 31.6 µM); in the experiment with Staph. epiderm. (222), 0.5 µg/mL (≈ 0.989 µM); with Enter. faecalis (2041) it was 4 µg/mL (≈ 7.91 µM). The MIC was 64 µg/mL (≈ 127 µM) with E. coli (N10) (E. coli (N10), agar dilution, read-out: MIC); 16 µg/mL (≈ 31.6 µM) with Staph. aureus (X400); 4 µg/mL (≈ 7.91 µM) with Staph. aureus (S13E); 4 µg/mL (≈ 7.91 µM) with Enter. faecium (X66); 16 µg/mL (≈ 31.6 µM) in the experiment on E. coli (EC14) (E. coli (EC14), agar dilution, read-out: MIC); 0.5 µg/mL (≈ 0.989 µM) in the experiment on K. pneumonia (X26). Moreover, the MIC in the experiment on Staph. aureus (X1.1) stood at 8 µg/mL (≈ 15.8 µM); in the experiment on Staph. epiderm. (270), 4 µg/mL (≈ 7.91 µM); in the experiment with K. pneumonia (KAE) (K. pneumonia (KAE), agar dilution, read-out: MIC), 128 µg/mL (≈ 253 µM); in the experiment with H. influenzae (C.L.), 4 µg/mL (≈ 7.91 µM); in the experiment on Staph. aureus (V41), 16 µg/mL (≈ 31.6 µM); in the experiment with H. influenzae (76), 4 µg/mL (≈ 7.91 µM).

Take `CC(=O)OCC1=C(C(=O)O)N2C(=O)[C@@H](NC(=O)Cc3csc(-c4cccc(O)c4)n3)[C@H]2SC1` [9m, [6R-[6A,7B(R*)]]-3-[(Acetyloxy)methyl]-7-[[[2-(3-hydroxyphenyl)-4-thiazolyl]acetyl]amino]-8-oxo-5-thia-1-azabicyclo[4.2.0]oct-2-ene-2-carboxylic Acid]: the MIC in the experiment with other Gram(-) bacteria was over 64 µg/mL; in experiment [2], at most 16 µg/mL; in the experiment with K. pneumonia (X68), 128 µg/mL (≈ 261 µM); in the experiment with Staph. epiderm. (222) it was 0.25 µg/mL (≈ 0.511 µM); in the experiment on Enter. faecalis (2041) it was 16 µg/mL (≈ 32.7 µM); against E. coli (N10), 128 µg/mL (≈ 261 µM). For the same compound, the MIC was 16 µg/mL (≈ 32.7 µM) in the experiment on Staph. aureus (X400); 8 µg/mL (≈ 16.3 µM) with Staph. aureus (S13E); 32 µg/mL (≈ 65.4 µM) in the experiment with Enter. faecium (X66); 128 µg/mL (≈ 261 µM) with E. coli (EC14); 4 µg/mL (≈ 8.17 µM) in the experiment with K. pneumonia (X26); 0.25 µg/mL (≈ 0.511 µM) with Staph. aureus (X1.1). The MIC against Staph. epiderm. (270) was found to be 1 µg/mL (≈ 2.04 µM); in the experiment with K. pneumonia (KAE), 128 µg/mL (≈ 261 µM); in the experiment with Staph. aureus (V41), 1 µg/mL (≈ 2.04 µM); in the experiment on E. coli (TEM), 128 µg/mL (≈ 261 µM).
